Data as given in patent US12421253B2 (Mirati Therapeutics, Inc., priority 2020, dated 2025).

Experiments:
KRas^G12V = biological target: T1, KRas^G12V (Homo sapiens, UniProt P01116, G12V); assay: KRas binding assay (TR-FRET displacement of Cy5 labelled tracer)
T1 construct: […]; biotin (biotinylated); purchased Accelegan Inc
Description: (§2) The ability of a compound to bind to KRas was measured using a TR-FRET displacement assay. […] After a 60-minute incubation at room temperature, the reaction was measured using a BMG LABTECH CLARIO star Plus via TR-FRET. […] The POC values were fit to a 4-parameter IC50 equation and the IC50 value reported.

KRas^G12D = biological target: T2, KRas^G12D (Homo sapiens, UniProt P01116, G12D); assay: as above
T2 construct: […]; biotin (biotinylated); purchased Accelegan Inc
Description: as §2

KRas^G12R = biological target: T3, KRas^G12R (Homo sapiens, UniProt P01116, G12R); assay: as above
T3 construct: […]; biotin (biotinylated); purchased Accelegan Inc
T3 sequence (P01116 1-169 isoform P01116-2 G12R): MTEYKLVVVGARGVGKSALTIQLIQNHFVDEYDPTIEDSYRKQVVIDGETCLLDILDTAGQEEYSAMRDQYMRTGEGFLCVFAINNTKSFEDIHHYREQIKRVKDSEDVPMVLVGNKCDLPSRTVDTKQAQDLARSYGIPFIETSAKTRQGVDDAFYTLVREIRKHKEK
Description: as §2

PSN1 cells, pERK = assay: Inhibition of KRas phosphorylation of ERK (Cisbio HTRF Advanced pERK assay); type: cell-based; conditions: Homo sapiens, PSN1, 3 h, read-out: Inhibition (HTRF IC50 nM) of KRas-mediated Phosphorylation of ERK, PSN1
Procedure, shortened: (§1)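 Cells seeded at 6,000/well in RPMI with 10% FBS, grown overnight at 37 °C, then exposed 3 h to 10-dose 3-fold compound series from 10 uM (0.8% DMSO final); 0.2 uM trametinib as minimum control. Lysates read for pERK by HTRF after 2 h antibody incubation at room temperature.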

H460 cells, pERK = assay: as above; type: cell-based; conditions: Homo sapiens, NCI-H460, 3 hrs, read-out: Inhibition (HTRF IC50 nM) of KRas-mediated Phosphorylation of ERK, H460
Procedure, shortened: as §1

ASPC1 cells, pERK = assay: as above; type: cell-based; conditions: Homo sapiens, ASPC1, 3 h, AsPC-1 cells, read-out: Inhibition (HTRF IC50 nM) of KRas-mediated Phosphorylation of ERK, AsPC-1
Procedure, shortened: as §1

MKN1 cells, pERK = assay: as above; type: cell-based; conditions: Homo sapiens, MKN-1, 3 h, read-out: Inhibition (HTRF IC50 nM) of KRas-mediated Phosphorylation of ERK, MKN1
Procedure, shortened: as §1

H727 cells, pERK = assay: as above; type: cell-based; conditions: Homo sapiens, NCI-H727, 3 h, read-out: Inhibition (HTRF IC50 nM) of KRas-mediated Phosphorylation of ERK, H727
Procedure, shortened: as §1

HCT116 cells, pERK = assay: as above; type: cell-based; conditions: Homo sapiens, HCT-116, 3 hrs, read-out: Inhibition (HTRF IC50 nM) of KRas-mediated Phosphorylation of ERK, HCT116
Procedure, shortened: as §1

T2 sequence (P01116 1-169 isoform P01116-2 G12D): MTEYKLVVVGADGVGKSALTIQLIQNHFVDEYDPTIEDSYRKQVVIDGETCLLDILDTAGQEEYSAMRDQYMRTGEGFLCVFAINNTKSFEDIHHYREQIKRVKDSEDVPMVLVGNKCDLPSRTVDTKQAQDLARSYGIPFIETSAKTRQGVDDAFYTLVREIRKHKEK
T1 sequence (P01116 1-169 isoform P01116-2 G12V): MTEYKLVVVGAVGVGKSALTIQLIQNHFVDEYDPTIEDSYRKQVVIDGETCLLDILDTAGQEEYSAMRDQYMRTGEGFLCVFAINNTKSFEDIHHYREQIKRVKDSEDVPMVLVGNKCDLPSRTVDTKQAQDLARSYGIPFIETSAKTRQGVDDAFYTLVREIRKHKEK

CC1(O)COCCN(c2nc(OC[C@@]34CCCN3C[C@H](F)C4)nc3c2CCN(c2cc(O)cc4ccc(F)c(Br)c24)C3)C1 (stereo partly drawn) [Example 219, 4-(7-(8-bromo-7-fluoro-3-hydroxynaphthalen-1-yl)-2-(((2R,7aS)-2-fluorohexahydro-1H-pyrrolizin-7a-yl)methoxy)-5,6,7,8-tetrahydropyrido[3,4-d]pyrimidin-4-yl)-6-methyl-1,4-oxazepan-6-ol] showed an IC50 (KRas^G12V) of 3 nM, an IC50 (KRas^G12D) of 3 nM and an IC50 (KRas^G12R) of 4 nM. The IC50 (PSN1 cells, pERK) was 6120 nM, the IC50 (H460 cells, pERK) was 1020 nM and the IC50 (ASPC1 cells, pERK) was 448 nM. The IC50 (MKN1 cells, pERK) was 97 nM and the IC50 (H727 cells, pERK) was 1580 nM.

In the case of CCc1c(F)ccc2cc(O)cc(N3CCc4c(nc(OC[C@@]56CCCN5C[C@H](F)C6)nc4N4CCCc5ncccc5C4)C3)c12 [Example 180, 4-(4-(8,9-dihydro-5H-pyrido[3,2-c]azepin-6(7H)-yl)-2-(((2R,7aS)-2-fluorohexahydro-1H-pyrrolizin-7a-yl)methoxy)-5,6-dihydropyrido[3,4-d]pyrimidin-7(8H)-yl)-5-ethyl-6-fluoronaphthalen-2-ol], the IC50 (KRas^G12V) is reported as 8 nM, the IC50 (KRas^G12D) is reported as 4 nM and the IC50 (KRas^G12R) is reported as 6 nM. For the same compound, the IC50 (PSN1 cells, pERK) was at least 10000 nM, the IC50 (H460 cells, pERK) was 1560 nM and the IC50 (ASPC1 cells, pERK) was 383 nM. It also gave an IC50 (MKN1 cells, pERK) of 462 nM and an IC50 (H727 cells, pERK) of 600 nM.

C[C@@]1(O)CCCN(c2nc(OC[C@@]34CCCN3C[C@H](F)C4)nc3c2CCN(c2cc(O)cc4ccc(F)c(Cl)c24)C3)C1 [Example 68, (R)-1-(7-(8-chloro-7-fluoro-3-hydroxynaphthalen-1-yl)-2-(((2R,7aS)-2-fluorohexahydro-1H-pyrrolizin-7a-yl)methoxy)-5,6,7,8-tetrahydropyrido[3,4-d]pyrimidin-4-yl)-3-methylpiperidin-3-ol] was tested, and the IC50 (KRas^G12V) was at most 2 nM, the IC50 (KRas^G12D) was at most 2 nM and the IC50 (KRas^G12R) was 3 nM. For the same compound, the IC50 (HCT116 cells, pERK) was 1170 nM, the IC50 (PSN1 cells, pERK) was 2260 nM and the IC50 (H460 cells, pERK) was 421 nM. It also gave an IC50 (ASPC1 cells, pERK) of 112 nM, an IC50 (MKN1 cells, pERK) of 71 nM and an IC50 (H727 cells, pERK) of 423 nM.

Work on C[C@@]1(O)CCCN(c2nc(OC[C@@]34CCCN3C[C@H](F)C4)nc3c2CCN(c2cc(O)cc4ccc(F)c(Br)c24)C3)C1 [Example 222, (R)-1-(7-(8-bromo-7-fluoro-3-hydroxynaphthalen-1-yl)-2-(((2R,7aS)-2-fluorotetrahydro-1H-pyrrolizin-7a(5H)-yl)methoxy)-5,6,7,8-tetrahydropyrido[3,4-d]pyrimidin-4-yl)-3-methylpiperidin-3-ol] yielded an IC50 (KRas^G12V) of at most 2 nM, an IC50 (KRas^G12D) of at most 2 nM and an IC50 (KRas^G12R) of at most 2 nM. For the same compound, the IC50 (HCT116 cells, pERK) was 672 nM, the IC50 (PSN1 cells, pERK) was 2820 nM and the IC50 (H460 cells, pERK) was 352 nM. The IC50 (ASPC1 cells, pERK) was 179 nM, the IC50 (MKN1 cells, pERK) was 37 nM and the IC50 (H727 cells, pERK) was 530 nM.

In the case of CCc1c(F)ccc2cc(O)cc(N3CCc4c(nc(OC[C@@]56CCCN5C[C@H](F)C6)nc4N4CCCC5(CNS(=O)(=O)N5)C4)C3)c12 (stereo partly drawn) [Example 61, 7-(7-(8-ethyl-7-fluoro-3-hydroxynaphthalen-1-yl)-2-(((2R,7aS)-2-fluorohexahydro-1H-pyrrolizin-7a-yl)methoxy)-5,6,7,8-tetrahydropyrido[3,4-d]pyrimidin-4-yl)-2-thia-1,3,7-triazaspiro[4.5]decane 2,2-dioxide], the IC50 (KRas^G12V) is reported as 4 nM, the IC50 (KRas^G12D) is reported as 4 nM and the IC50 (KRas^G12R) is reported as 9 nM. The IC50 (HCT116 cells, pERK) was 2380 nM, the IC50 (PSN1 cells, pERK) was 3650 nM and the IC50 (ASPC1 cells, pERK) was 211 nM. For the same compound, the IC50 (MKN1 cells, pERK) was 51 nM and the IC50 (H727 cells, pERK) was 1200 nM.

Compound O=C1CC2(CCCN(c3nc(OC[C@@]45CCCN4C[C@H](F)C5)nc4c3CCN(c3cc(O)cc5ccc(F)c(Br)c35)C4)C2)N1 (stereo partly drawn) [Example 223, 6-(7-(8-bromo-7-fluoro-3-hydroxynaphthalen-1-yl)-2-(((2R,7aS)-2-fluorohexahydro-1H-pyrrolizin-7a-yl)methoxy)-5,6,7,8-tetrahydropyrido[3,4-d]pyrimidin-4-yl)-1,6-diazaspiro[3.5]nonan-2-one] has an IC50 (KRas^G12V) of at most 2 nM, an IC50 (KRas^G12D) of at most 2 nM and an IC50 (KRas^G12R) of at most 2 nM. For the same compound, the IC50 (PSN1 cells, pERK) was 607 nM, the IC50 (H460 cells, pERK) was 325 nM and the IC50 (ASPC1 cells, pERK) was 320 nM. The IC50 (MKN1 cells, pERK) was 19 nM and the IC50 (H727 cells, pERK) was 234 nM.

CCc1c(F)ccc2cc(O)cc(N3CCc4c(nc(OC[C@@]56CCCN5C[C@H](F)C6)nc4N4CCCC5(CNC(=O)C5)C4)C3)c12 (stereo partly drawn) [Example 197, 7-(7-(8-ethyl-7-fluoro-3-hydroxynaphthalen-1-yl)-2-(((2R,7aS)-2-fluorohexahydro-1H-pyrrolizin-7a-yl)methoxy)-5,6,7,8-tetrahydropyrido[3,4-d]pyrimidin-4-yl)-2,7-diazaspiro[4.5]decan-3-one] gave an IC50 (KRas^G12V) of at most 2 nM, an IC50 (KRas^G12D) of at most 2 nM and an IC50 (KRas^G12R) of at most 2 nM. It also gave an IC50 (HCT116 cells, pERK) of 499 nM, an IC50 (PSN1 cells, pERK) of 1690 nM and an IC50 (H460 cells, pERK) of 285 nM. The IC50 (ASPC1 cells, pERK) was 136 nM, the IC50 (MKN1 cells, pERK) was 12 nM and the IC50 (H727 cells, pERK) was 313 nM.

Nc1cc2n(n1)CCCN(c1nc(OC[C@@]34CCCN3C[C@H](F)C4)nc3c1CCN(c1cc(O)cc4ccc(F)c(Br)c14)C3)C2 [Example 212, 4-(4-(2-amino-7,8-dihydro-4H-pyrazolo[1,5-a][1,4]diazepin-5(6H)-yl)-2-(((2R,7aS)-2-fluorohexahydro-1H-pyrrolizin-7a-yl)methoxy)-5,6-dihydropyrido[3,4-d]pyrimidin-7(8H)-yl)-5-bromo-6-fluoronaphthalen-2-ol] gave an IC50 (KRas^G12V) of at most 2 nM, an IC50 (KRas^G12D) of at most 2 nM and an IC50 (KRas^G12R) of at most 2 nM. For the same compound, the IC50 (HCT116 cells, pERK) was 1110 nM, the IC50 (PSN1 cells, pERK) was at least 10000 nM and the IC50 (H460 cells, pERK) was 545 nM. It also gave an IC50 (ASPC1 cells, pERK) of 111 nM, an IC50 (MKN1 cells, pERK) of 61 nM and an IC50 (H727 cells, pERK) of 268 nM.

With Nc1cc2n(n1)CCCN(c1nc(OC[C@@]34CCCN3C[C@H](F)C4)nc3c1CCN(c1cc(O)cc4ccc(F)c(Cl)c14)C3)C2 [Example 75, 4-(4-(2-amino-7,8-dihydro-4H-pyrazolo[1,5-a][1,4]diazepin-5(6H)-yl)-2-(((2R,7aS)-2-fluorohexahydro-1H-pyrrolizin-7a-yl)methoxy)-5,6-dihydropyrido[3,4-d]pyrimidin-7(8H)-yl)-5-chloro-6-fluoronaphthalen-2-ol] the IC50 (KRas^G12V) was 3 nM, the IC50 (KRas^G12D) was at most 2 nM and the IC50 (KRas^G12R) was at most 2 nM. For the same compound, the IC50 (HCT116 cells, pERK) was 2160 nM, the IC50 (PSN1 cells, pERK) was at least 10000 nM and the IC50 (ASPC1 cells, pERK) was 128 nM. The IC50 (MKN1 cells, pERK) was 128 nM and the IC50 (H727 cells, pERK) was 242 nM.
